Experimental data published in patent US11116746B2, “Use of rice bran oil distillate extract for prevention and mitigation of the effects of radiation” (Tocol Pharmaceuticals, LLC, priority 2015, dated 2021).

Key:
[1] = system: H9c2 rat heart cardiomyocytes; experiment: Cell morphology of cardiomyocytes after H2O2 damage; format: cell-based; conditions: 5 μM pretreatment overnight; 100 and 200 μM H2O2 for 4 h
Experimental: H9c2 rat heart cardiomyocytes were treated with either vehicle control (DMSO, 0.1% v/v), 5 μM delta-tocotrienol or 5 μM TRFRB overnight. Cells were then exposed to 100 or 200 μM H2O2 for 4 h. Morphological changes were recorded under an inverted microscope. Pictures were taken at 10× magnification. Scale bar represents 400 μm.
We then investigated whether TRFRB can protect the various cells types from different tissue origins against H2O2 or IR induced oxidative damage.

[2] = system: H9c2 rat heart cardiomyocytes; experiment: Mitochondrial bioenergetics (oxygen consumption rate, XF96 analyzer) in H9c2 cells with or without H2O2; format: cell-based
Experimental: Oxygen consumption rate (OCR) was measured at 37° C. using an XF96 extracellular analyzer (Seahorse Bioscience) as previously described Pathak et al., Antioxid Redox Signal 2014, 20, 1436-1446. H9c2 rat heart cardiomyocytes cells were plated in 96 well Seahorse plates. The next day they were treated with either vehicle (DMSO, 0.1% v/v) or 5 μM of DT3 or 5 μM of TRFRB overnight. The cells were then treated with 50 or 100 μM H2O2 for 4 h at 37° C. The media in the wells were changed to unbuffered DMEM supplemented with 4 mM […] and incubated in a non-CO2 incubator for 1 h at 37° C. Three baseline measurements were acquired before injection of mitochondrial inhibitors or uncouplers. Readings were taken after sequential addition of oligomycin (10 μM), carbonylcyanide 4-(trifluoromethoxy)phenylhydrazone (FCCP, 10 μM) and rotenone/antimycin A (10 μM). Oxygen consumption rates were calculated by the Seahorse XF-96 software and represent an average of 3 measurements on 8 different wells. The rate of measured oxygen consumption was reported as pmol O2 consumed per minute per 10,000 cells.
Therefore, the next experiment assessed the effects of TRFRB and pure DT3 on cellular bioenergetics and mitochondrial respiration in the absence of any cellular stress. Intracellular mitochondrial function was examined by sequentially adding inhibitors of oxidative phosphorylation. Initially we took 3 measurements to determine the “basal respiration” of the cells. By injecting an inhibitor of mitochondrial ATP synthase (oligomycin), a decrease in oxygen consumption rate (OCR) was obtained and this decrease in OCR is termed as “ATP linked respiration”. In order to determine the maximal respiration potential of the cells, FCCP, an uncoupler, was used. Immediately following FCCP injection, oxygen consumption increased and cells reached to their maximum respiration. Mitochondrial “reserve respiratory capacity” was calculated by subtracting […]. Overnight (16 h) treatment of both DT3 and TRFRB increased basal oxygen consumption rate (OCR) as well as maximum OCR in H9c2 rat heart cardiomyocytes (FIG. 4A). […] 100 μM H2O2 treatment for 4 h completely halted the cellular respiration (FIGS. 4B and C).

HaCaT cells [3] = experiment: Mitochondrial bioenergetics (mitochondrial uncoupling) in irradiated keratinocytes; format: cell-based, human; conditions: 5 μM pretreatment 16 h prior to 8 Gy IR; 48 h following IR; normalized to sham irradiated control
Experimental: In order to determine the radioprotective effects of TRFRB, human immortalized keratinocytes (HaCaT cells) were plated in 96 well Seahorse plates. The next day they were treated with either vehicle (DMSO, 0.1% v/v) or 5 μM of DT3 or 5 μM of TRFRB overnight. The Seahorse plates were either sham irradiated or irradiated with 8 Gy of γ-irradiation. Both plates were sequentially run in the XF96 extracellular analyzer as described above.
Secondly we utilized an immortalized human skin keratinocyte line (HaCaT cells) to evaluate the radioprotective effects of TRFRB. HaCaT cells were pretreated with DMSO vehicle or 5 μM of DT3 or TRFRB for 16 h prior to 8 Gy IR. Then the cellular bioenergetics and mitochondrial respiration in these cells were assayed at 48 h following IR exposure as described with H9c2 cells. The percent mitochondrial uncoupling is defined and calculated by determining the increase in the ratio of basal respiration to maximum respiration (OCR following FCCP treatment) and the data was normalized to the sham irradiated control group.

HaCaT cells [4] = experiment: In vitro scratch assay (keratinocyte migration) after 8 Gy IR; format: cell-based, human; conditions: 5 μM given 4 h after IR exposure
Experimental: Human immortalized keratinocytes (HaCaT cells) were plated in 12 well culture plates and irradiated with 8 Gy or sham irradiated 24 h after plating. The cells were given either vehicle (DMSO, 0.1% v/v) or 5 μM of DT3 or 5 μM of TRFRB 4 hours following radiation. Culture media were replaced again at 36 h following radiation. At the 72 h time point, a scratch was made using a sterile micropipette tip in each well. This created an open area into which the keratinocytes migrated. Two areas of the scratch margins were imaged daily until scratches were closed. The area of the scratch remaining was measured on the images at five points per field, with two fixed fields averaged using Cell Analyzer 1.0 (BWTech, Iowa City, Iowa). Measurements were stopped when cells no longer made positive progress towards the scratch origin. See Ross et al., Exp Dermatol 2011, 20, 58-63.
This protection in the increased survival fraction was not statistically significant compared to 8 Gy IR alone group (FIG. 7). An in vitro scratch assay was utilized to evaluate the protective efficacy of TRFRB for keratinocyte migration function when the cells were treated with TRFRB after IR exposure.

[5] = single injection; cited from earlier work
[6] = system: TBHP induced lipid peroxidation in Wistar rat liver microsomes; experiment: TBARS assay: inhibition of TBHP induced microsomal lipid peroxidation; format: biochemical; conditions: microsomes pretreated 1 h, then TBHP 30 min; TRFRB expressed in μM of tocotrienols; read-out: IC50, concentration that reduced the amount of lipid peroxidation approximately 50%
Experimental: The antioxidant activity of TRFRB was assessed measuring the ability to prevent microsomal lipid peroxidation. For this a TBARS assay was performed using a modified version of the original method described by Buege and Aust, Microsomal lipid peroxidation. Methods Enzymol 1978, 52, 302-310. Briefly, rat liver microsomes (BD Bioscience) were suspended in PBS in glass tubes at final concentration of 1 mg/mL. To this, increasing concentrations of TRFRB dissolved in DMSO were added. DMSO alone was used as control. The final DMSO percentage was kept under 0.1%. Microsomes were subsequently incubated with the test compounds at 37° C. for one hour in a shaking water bath (100 rpm). After one hour, freshly made tert-Butyl hydroperoxide (TBHP) solution was added to microsomes at a final concentration of 200 μM and incubation was continued for another 30 mins. The reaction was terminated by addition of 20% trichloroacetic acid and tubes were placed on ice for 15 mins. Equal volume of 0.67% thiobarbituric acid in 0.05N NaOH was added and the final mixture was heated at 95° C. for 45 mins to allow the color to develop. Finally, the tubes were cooled on ice and centrifuged at 1000 rpm for 20 mins and the supernatant was read at 532 nm. The percent TBARS was calculated using a standard curve obtained using malondialdehyde (MDA). […]

Row | Compound | protection of cell morphology against H2O2 treatment [1] | mitochondrial respiration following H2O2 injury ([2]; 5 μM for 16 h prior to 50 or 100 μM H2O2 for 4 h) | basal oxygen consumption rate (OCR) ([2]; 5 μM overnight (16 h), no cellular stress) | maximum OCR ([2]; 5 μM overnight (16 h), no cellular stress, after FCCP) | reserve respiratory capacity ([2]; calculated from maximum and basal OCR) | degree of mitochondrial uncoupling (HaCaT cells [3]) | migration rates (HaCaT cells [4]) | dose reduction factor (DRF) as a radiomitigator [5] | dose reduction factor (DRF) as a radioprotectant [5] | IC50 [6]
1 | CC(C)=CCC/C(C)=C/CC/C(C)=C/CC[C@]1(C)CCc2cc(O)cc(C)c2O1 [DT3, δ-tocotrienol] | significantly protected the morphology | complete protection and restored the mitochondrial respiration | increased | increased | an increase in reserve respiratory capacity | this increase was reversed | partially restored | 1.1 | 1.27 | –
2 | CC(C)=CCC/C(C)=C/CC/C(C)=C/CC[C@]1(C)CCc2cc(O)c(C)c(C)c2O1 [GT3, γ-tocotrienol] | – | – | – | – | – | – | – | – | 1.29 | 7 µM
